# Measurements as given in article PMC3829359 (The Journal of Biological Chemistry, 2021).
# How the values were obtained:
# DC-SIGNR CRD [1] = target: T1, DC-SIGNR CRD (Homo sapiens, UniProt Q9H2X3); test: 1H-15N HSQC NMR titration, chemical shift perturbation, […] fit; format: binding; details: pH 6.8, 37 °C, 20 mM HEPES-d18, 20 mM NaCl, 4 mM Ca2+, 0.7 mM protein
# T1 sequence (Q9H2X3 262-399): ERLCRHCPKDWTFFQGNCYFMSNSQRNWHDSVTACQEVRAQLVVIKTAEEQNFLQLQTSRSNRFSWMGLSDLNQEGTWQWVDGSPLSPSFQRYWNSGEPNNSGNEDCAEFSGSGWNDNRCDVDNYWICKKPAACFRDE
# DC-SIGNR CRD [2] = target: T1, DC-SIGNR CRD; test: 1H-15N HSQC NMR titration, chemical shift perturbation; format: binding; details: pH 6.8, 37 °C, 20 mM HEPES-d18, 20 mM NaCl, 4 mM Ca2+, 0.7 mM protein; intermediate exchange, severe line broadening, KD could not be estimated
Kd (DC-SIGNR CRD [1]) [mM],Compound,"1H-15N HSQC NMR titration, chemical shift perturbation (DC-SIGNR CRD [2])"
2.04 ± 0.54,OC[C@H]1O[C@H](OC[C@H]2OC(O)[C@@H](O)[C@@H](O[C@H]3O[C@H](CO)[C@@H](O)[C@H](O)[C@@H]3O)[C@@H]2O)[C@@H](O)[C@@H](O)[C@@H]1O (stereo partly drawn) [Man3],
2.2 ± 0.43,OC[C@H]1O[C@H](OC[C@H]2O[C@H](OC[C@H]3OC(O)[C@@H](O)[C@@H](O[C@H]4O[C@H](CO)[C@@H](O)[C@H](O)[C@@H]4O)[C@@H]3O)[C@@H](O)[C@@H](O[C@H]3O[C@H](CO)[C@@H](O)[C@H](O)[C@@H]3O)[C@@H]2O)[C@@H](O)[C@@H](O)[C@@H]1O (stereo partly drawn) [Man5],
,CC(=O)N[C@H]1C(O)O[C@H](CO)[C@@H](O[C@@H]2O[C@H](CO[C@H]3O[C@H](CO[C@H]4O[C@H](CO)[C@@H](O)[C@H](O)[C@@H]4O[C@H]4O[C@H](CO)[C@@H](O)[C@H](O)[C@@H]4O)[C@@H](O)[C@H](O[C@H]4O[C@H](CO)[C@@H](O)[C@H](O)[C@@H]4O[C@H]4O[C@H](CO)[C@@H](O)[C@H](O)[C@@H]4O)[C@@H]3O)[C@@H](O)[C@H](O[C@H]3O[C@H](CO)[C@@H](O)[C@H](O)[C@@H]3O[C@H]3O[C@H](CO)[C@@H](O)[C@H](O)[C@@H]3O[C@H]3O[C@H](CO)[C@@H](O)[C@H](O)[C@@H]3O)[C@@H]2O)[C@@H]1O (stereo partly drawn) [Man9GlcNAc],binding of Man9GlcNAc caused substantial broadening and disappearance of a number of CRD peaks
